Results: US20070093520A1, “Method of treatment of diarrhea-predominant irritable bowel syndrome in a subject” (priority 2005, published 2007)

Tested on: diarrhea-predominant IBS subjects
Experiment: 3007 Study: open-label 52-week safety study, adverse events and withdrawals
Settings: Overall

SMILES: Cc1nccn1C[C@H]1CCc2c(c3cccc4c3n2CCC4)C1=O [cilansetron, (R)-(−)-4,5,6,8,9,10-hexahydro-10-[(2-methyl-1H-imidazol-1-yl)methyl]-11H-pyrido-[3,2,1-jk]-carbazol-11-one]
- TEAE: Sexual Desire Disorders: 1 (<1%) n (%)
- TEAE: Sick Sinus Syndrome: 1 (<1%) n (%)
- TEAE: Sinus Arrhythmia: 1 (<1%) n (%)
- TEAE: Sinus Congestion: 8 (1%) n (%)
- TEAE: Sinus Headache: 3 (<1%) n (%)
- TEAE: Sinusitis Acute NOS: 1 (<1%) n (%)
- TEAE: Sinusitis NOS: 37 (7%) n (%)
- TEAE: Site Specific Injuries NEC: 6 (1%) n (%)
- TEAE: Skeletal and Cardiac Muscle Analyses: 27 (5%) n (%)
- TEAE: Skin Disorder NOS: 1 (<1%) n (%)
- TEAE: Skin Fungal Infection NOS: 1 (<1%) n (%)
- TEAE: Skin Infection NOS: 1 (<1%) n (%)
- TEAE: Skin Injuries and Mechanical Dermatoses: 3 (<1%) n (%)
- TEAE: Skin Lesion NOS: 3 (<1%) n (%)
- TEAE: Skin Neoplasms Benign: 1 (<1%) n (%)
- TEAE: Skin Neoplasms Malignant and Unspecified (Excl Melanoma): 6 (1%) n (%)
- TEAE: Skin Structures and Soft Tissue Infections: 3 (<1%) n (%)
- TEAE: Skin Ulcer: 1 (<1%) n (%)
- TEAE: Skin and Subcutaneous Tissue Disorders: 39 (7%) n (%)
- TEAE: Skin and Subcutaneous Tissue Ulcerations: 1 (<1%) n (%)
- TEAE: Sleep Apnoea Syndrome: 2 (<1%) n (%)
- TEAE: Sleep Apnoeas: 2 (<1%) n (%)
- TEAE: Social Circumstances: 1 (<1%) n (%)
- TEAE: Soft Tissue Disorders NEC: 2 (<1%) n (%)
- TEAE: Soft Tissue Neoplasms Benign NEC: 3 (<1%) n (%)
- TEAE: Somnolence: 2 (<1%) n (%)
- TEAE: Speech and Language Abnormalities: 1 (<1%) n (%)
- TEAE: Spinal Cord and Nerve Root Disorders NEC: 1 (<1%) n (%)
- TEAE: Spondylitic Myelopathy: 1 (<1%) n (%)
- TEAE: Spondyloarthropathies: 1 (<1%) n (%)
- TEAE: Spondylosis: 1 (<1%) n (%)
- TEAE: Staphylococcal Infection NOS: 1 (<1%) n (%)
- TEAE: Staphylococcal Infections: 1 (<1%) n (%)
- TEAE: Status Epilepticus: 1 (<1%) n (%)
- TEAE: Stomach Discomfort: 1 (<1%) n (%)
- TEAE: Strabismus: 1 (<1%) n (%)
- TEAE: Streptococcal Infection NOS: 1 (<1%) n (%)
- TEAE: Streptococcal Infections: 8 (1%) n (%)
- TEAE: Stress Fracture: 1 (<1%) n (%)
- TEAE: Stress Incontinence: 1 (<1%) n (%)
- TEAE: Stress Symptoms: 1 (<1%) n (%)
- TEAE: Structural and Other Bile Duct Disorders: 1 (<1%) n (%)
- TEAE: Sugar Intolerance (Excl Glucose Intolerance): 1 (<1%) n (%)
- TEAE: Suicidal Ideation: 1 (<1%) n (%)
- TEAE: Suicidal and Self-Injurious Behaviour: 1 (<1%) n (%)
- TEAE: Supraventricular Arrhythmias: 4 (<1%) n (%)
- TEAE: Supraventricular Tachycardia: 1 (<1%) n (%)
- TEAE: Surgical and Medical Procedures: 2 (<1%) n (%)
- TEAE: Sweating Increased: 2 (<1%) n (%)
- TEAE: Swelling Face: 1 (<1%) n (%)
- TEAE: Tachycardia NOS: 1 (<1%) n (%)
- TEAE: Temporomandibular Joint Disorder NOS: 1 (<1%) n (%)
- TEAE: Tenderness NOS: 1 (<1%) n (%)
- TEAE: Tendon Disorders: 3 (<1%) n (%)
- TEAE: Tendonitis: 2 (<1%) n (%)
- TEAE: Tension Headaches: 1 (<1%) n (%)
- TEAE: Thoracic Cage Fractures and Dislocations: 1 (<1%) n (%)
- TEAE: Thrombocytopenia: 1 (<1%) n (%)
- TEAE: Thrombocytopenias: 1 (<1%) n (%)
- TEAE: Thrombophlebitis Superficial: 1 (<1%) n (%)
- TEAE: Thyroid Disorders NEC: 1 (<1%) n (%)
- TEAE: Thyroid Hypofunction Disorders: 2 (<1%) n (%)
- TEAE: Thyroid Neoplasms: 1 (<1%) n (%)
- TEAE: Thyroid Nodule: 1 (<1%) n (%)
- TEAE: Tinea Cruris: 1 (<1%) n (%)
- TEAE: Tinea Infections: 2 (<1%) n (%)
- TEAE: Tinea Pedis: 1 (<1%) n (%)
- TEAE: Tinnitus: 1 (<1%) n (%)
- TEAE: Tissue Enzyme Analyses NEC: 3 (<1%) n (%)
- TEAE: Tongue Coated: 1 (<1%) n (%)
- TEAE: Tongue Signs and Symptoms: 1 (<1%) n (%)
- TEAE: Tooth Abscess: 7 (1%) n (%)
- TEAE: Tooth Disorder NOS: 1 (<1%) n (%)
- TEAE: Tooth Impacted: 1 (<1%) n (%)
- TEAE: Tooth Infection: 2 (<1%) n (%)
- TEAE: Toothache: 3 (<1%) n (%)
- TEAE: Total Fluid Volume Decreased: 2 (<1%) n (%)
- TEAE: Total Number of Subjects with at Least One TEAE: 437 (82%) n (%)
- TEAE: Transient Global Amnesia: 1 (<1%) n (%)
- TEAE: Tremor: 2 (<1%) n (%)
- TEAE: Tremor (Excl Congenital): 2 (<1%) n (%)
- TEAE: Trigger Finger: 1 (<1%) n (%)
- TEAE: Triglyceride Analyses: 10 (2%) n (%)
- TEAE: Tympanic Membrane Disorder NOS: 1 (<1%) n (%)
- TEAE: Tympanic Membrane Disorders (Excl Infections): 1 (<1%) n (%)
- TEAE: Umbilical Hernia NOS: 1 (<1%) n (%)
- TEAE: Umbilical Hernias: 1 (<1%) n (%)
- TEAE: Upper Limb Fractures and Dislocations: 1 (<1%) n (%)
- TEAE: Upper Respiratory Tract Infection NOS: 26 (5%) n (%)
- TEAE: Upper Respiratory Tract Infections - Pathogen Class Unspecified: 61 (11%) n (%)
- TEAE: Upper Respiratory Tract Signs and Symptoms: 7 (1%) n (%)
- TEAE: Urinalysis NEC: 16 (3%) n (%)
- TEAE: Urinary Abnormalities: 6 (1%) n (%)
- TEAE: Urinary Frequency: 3 (<1%) n (%)
- TEAE: Urinary Incontinence: 1 (<1%) n (%)
- TEAE: Urinary Retention: 1 (<1%) n (%)
- TEAE: Urinary Tract Infection NOS: 26 (5%) n (%)
- TEAE: Urinary Tract Infections: 29 (5%) n (%)
- TEAE: Urinary Tract Lithiasis (Excl Renal): 1 (<1%) n (%)
- TEAE: Urinary Tract Signs and Symptoms NEC: 1 (<1%) n (%)
- TEAE: Urine Abnormal NOS: 1 (<1%) n (%)
- TEAE: Urine Analysis Abnormal NOS: 1 (<1%) n (%)
- TEAE: Urine Bilirubin Increased: 1 (<1%) n (%)
- TEAE: Urine Ketone Body Present: 5 (<1%) n (%)
- TEAE: Urine Leukocyte Esterase Positive: 5 (<1%) n (%)
- TEAE: Urobilin Urine Present: 1 (<1%) n (%)
- TEAE: Urticaria NOS: 3 (<1%) n (%)
- TEAE: Urticarias: 3 (<1%) n (%)
- TEAE: Uterine Disorders NEC*: 2 (<1%) n (%)
- TEAE: Uterine Fibroids*: 1 (<1%) n (%)
- TEAE: Uterine Neoplasms Benign*: 1 (<1%) n (%)
- TEAE: Uterine Neoplasms*: 2 (<1%) n (%)
- TEAE: Uterine Polyp NOS*: 2 (<1%) n (%)
- TEAE: Vaginal Cyst*: 1 (<1%) n (%)
- TEAE: Vaginal Lesion*: 1 (<1%) n (%)
- TEAE: Varicose Vein Ruptured: 2 (<1%) n (%)
- TEAE: Varicose Veins Non-Site Specific: 2 (<1%) n (%)
- TEAE: Vascular Auscultatory Investigations: 2 (<1%) n (%)
- TEAE: Vascular Disorders: 21 (4%) n (%)
- TEAE: Vascular Hypertensive Disorders NEC: 15 (3%) n (%)
- TEAE: Vascular Hypotensive Disorders: 1 (<1%) n (%)
- TEAE: Vascular Tests NEC (Incl Blood Pressure): 5 (<1%) n (%)
- TEAE: Vasovagal Attack: 1 (<1%) n (%)
- TEAE: Ventricular Arrhythmias and Cardiac Arrest: 2 (<1%) n (%)
- TEAE: Ventricular Extrasystoles: 1 (<1%) n (%)
- TEAE: Vertigo: 2 (<1%) n (%)
- TEAE: Viral Infection NOS: 4 (<1%) n (%)
- TEAE: Viral Infections NEC: 15 (3%) n (%)
- TEAE: Visual Acuity Reduced: 1 (<1%) n (%)
- TEAE: Vitreous Disorder NOS: 1 (<1%) n (%)
- TEAE: Vomiting NOS: 18 (3%) n (%)
- TEAE: Vulvovaginal Cysts and Neoplasms*: 1 (<1%) n (%)
- TEAE: Vulvovaginal Dryness*: 2 (<1%) n (%)
- TEAE: Vulvovaginal Signs and Symptoms*: 3 (<1%) n (%)
- TEAE: Weight Decreased: 2 (<1%) n (%)
- TEAE: Weight Increased: 6 (1%) n (%)
- TEAE: Wheezing: 1 (<1%) n (%)
- TEAE: White Blood Cell Analyses: 5 (<1%) n (%)
- TEAE: White Blood Cell Count Decreased: 1 (<1%) n (%)
- TEAE: White Blood Cells Urine Positive: 1 (<1%) n (%)
- TEAE leading to permanent discontinuation: Abdominal Distension (N=536): 4 (<1%) n (%)
- TEAE leading to permanent discontinuation: Abdominal Pain Aggravated (N=536): 1 (<1%) n (%)
- TEAE leading to permanent discontinuation: Abdominal Pain Lower (N=536): 2 (<1%) n (%)
- TEAE leading to permanent discontinuation: Abdominal Pain NOS (N=536): 11 (2%) n (%)
- TEAE leading to permanent discontinuation: Abdominal Pain Upper (N=536): 4 (<1%) n (%)
- TEAE leading to permanent discontinuation: Alanine Aminotransferase Increased (N=536): 1 (<1%) n (%)
- TEAE leading to permanent discontinuation: Angina Pectoris (N=536): 1 (<1%) n (%)
- TEAE leading to permanent discontinuation: Appendicitis (N=536): 1 (<1%) n (%)
- TEAE leading to permanent discontinuation: Asthma Aggravated (N=536): 1 (<1%) n (%)
- TEAE leading to permanent discontinuation: Asthma NOS (N=536): 1 (<1%) n (%)
- TEAE leading to permanent discontinuation: Back Pain (N=536): 4 (<1%) n (%)
- TEAE leading to permanent discontinuation: Bladder Prolapse (N=536): 1 (<1%) n (%)
- TEAE leading to permanent discontinuation: Blood Bilirubin Increased (N=536): 1 (<1%) n (%)
- TEAE leading to permanent discontinuation: Blood Pressure Increased (N=536): 1 (<1%) n (%)
- TEAE leading to permanent discontinuation: Blood Urine Present (N=536): 1 (<1%) n (%)
- TEAE leading to permanent discontinuation: Bone Neoplasm Malignant (N=536): 1 (<1%) n (%)
- TEAE leading to permanent discontinuation: Cardiac Disorders (N=536): 1 (<1%) n (%)
- TEAE leading to permanent discontinuation: Chest Discomfort (N=536): 1 (<1%) n (%)
- TEAE leading to permanent discontinuation: Chest Pain (N=536): 1 (<1%) n (%)
- TEAE leading to permanent discontinuation: Chest Wall Pain (N=536): 1 (<1%) n (%)
- TEAE leading to permanent discontinuation: Colitis Ischaemic (N=536): 1 (<1%) n (%)
- TEAE leading to permanent discontinuation: Constipation (N=536): 28 (5%) n (%)
- TEAE leading to permanent discontinuation: Cough (N=536): 1 (<1%) n (%)
- TEAE leading to permanent discontinuation: Dehydration (N=536): 1 (<1%) n (%)
- TEAE leading to permanent discontinuation: Depression (N=536): 1 (<1%) n (%)
- TEAE leading to permanent discontinuation: Diarrhoea Aggravated (N=536): 2 (<1%) n (%)
- TEAE leading to permanent discontinuation: Diarrhoea Haemorrhagic (N=536): 1 (<1%) n (%)
- TEAE leading to permanent discontinuation: Diarrhoea NOS (N=536): 6 (1%) n (%)
- TEAE leading to permanent discontinuation: Dizziness (N=536): 2 (<1%) n (%)
